Laboratory results: patent EP3755703B1, “N-(PHENYL)-2-(PHENYL)PYRIMIDINE-4-CARBOXAMIDE DERIVATIVES AND RELATED COMPOUNDS AS HPK1 INHIBITORS FOR TREATING CANCER” (Incyte Corporation, priority 2018, dated 2019)

The compounds below were run against T1, HPK1 (Homo sapiens, UniProt Q92918) (assay: HPK1 Kinase Binding Assay). Settings: LanthaScreen tracer 222, one hour incubation at 25 °C.
T1 construct: purchased SignalChem M23-11G
T1 sequence (Q92918 1-346 limits assumed): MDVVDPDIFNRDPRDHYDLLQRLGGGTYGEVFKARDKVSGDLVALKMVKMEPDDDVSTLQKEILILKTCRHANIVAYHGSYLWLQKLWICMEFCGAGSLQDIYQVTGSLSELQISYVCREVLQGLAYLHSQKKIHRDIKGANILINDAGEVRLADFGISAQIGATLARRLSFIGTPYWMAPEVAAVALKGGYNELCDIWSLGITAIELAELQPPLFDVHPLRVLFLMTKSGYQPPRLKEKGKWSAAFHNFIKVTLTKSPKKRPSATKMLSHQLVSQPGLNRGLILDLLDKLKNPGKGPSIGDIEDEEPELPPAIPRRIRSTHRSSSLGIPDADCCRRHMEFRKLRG
Experimental: A stock solution of 1 mM test compound was prepared in DMSO. The compound plate was prepared by 3-fold and 11-point serial dilutions. 0.1 µL of the compound in DMSO was transferred from the compound plate to the white 384 well polystyrene plates. The assay buffer contained 50 mM HEPES, pH 7.5, 0.01% Tween-20, 5 mM MgCl2, 0.01% BSA, and 5 mM DTT. 5 µL of 4 nM active HPK1 (SignalChem M23-11G) prepared in the buffer was added to the plate. The enzyme concentration given was based on the given stock concentration reported by the vender. […] After one hour incubation at 25 °C, the plates were read on a PHERAstar FS plate reader (BMG Labtech). Ki values were determined.

SMILES	Ki
COc1cccc(F)c1-c1nccc(C(=O)Nc2ccc(-c3c(C)nn(C)c3C)nc2N2C[C@@H](N)C[C@H]2CO)n1 [Example 65, N-(2-((2S,4S)-4-Amino-2-(hydroxymethyl)pyrrolidin-1-yl)-6-(1,3,5-trimethyl-1H-pyrazol-4-yl)pyridin-3-yl)-2-(2-fluoro-6-methoxyphenyl)pyrimidine-4-carboxamide]	< 100 nM
COc1ccc(C(=O)Nc2ccc(-c3cnccc3C#N)cc2N2C[C@@H](N)C[C@H]2CO)nc1-c1c(F)cccc1OC [Example 61, N-(2-((2S,4S)-4-Amino-2-(hydroxymethyl)pyrrolidin-1-yl)-4-(4-cyanopyridin-3-yl)phenyl)-6-(2-fluoro-6-methoxyphenyl)-5-methoxypicolinamide]	100 to 500 nM
COc1cccc(F)c1-c1nccc(C(=O)Nc2ccccc2C2CCCC(N)C2)n1 (stereo not drawn) [Example 80, N-(2-(3-Aminocyclohexyl)phenyl)-2-(2-fluoro-6-methoxyphenyl)pyrimidine-4-carboxamide]	< 100 nM
COc1cccc(F)c1-c1nccc(C(=O)Nc2ccc(-c3cnccc3C#N)cc2N2C[C@@H]3C[C@@]2(CO)CN3)n1 [Example 57, N-(4-(4-Cyanopyridin-3-yl)-2-((1S,4S)-1-(hydroxymethyl)-2,5-diazabicyclo[2.2.1]heptan-2-yl)phenyl)-2-(2-fluoro-6-methoxyphenyl)pyrimidine-4-carboxamide]	< 100 nM
N#Cc1ccncc1-c1ccc(NC(=O)c2ccnc(-c3c(F)cccc3Cl)n2)c(N2C[C@@H](N)C[C@H]2CO)c1 [Example 64, N-(2-((2S,4S)-4-Amino-2-(hydroxymethyl)pyrrolidin-1-yl)-4-(4-cyanopyridin-3-yl)phenyl)-2-(2-chloro-6-fluorophenyl)pyrimidine-4-carboxamide]	< 100 nM
COc1cccc(F)c1-c1nccc(C(=O)Nc2ccc(-c3cnccc3C#N)cc2N2C[C@]3(CO)C[C@H]2CN3C)n1 [Example 99, N-(4-(4-Cyanopyridin-3-yl)-2-((1S,4S)-4-(hydroxymethyl)-5-methyl-2,5-diazabicyclo [2.2.1]heptan-2-yl)phenyl)-2-(2-fluoro-6-methoxyphenyl)pyrimidine-4-carboxamide]	< 100 nM
COC[C@@H]1CCN1c1ccc(NC(=O)c2ccnc(-c3c(F)cccc3OC)n2)c(N2C[C@@H]3C[C@H]2CN3)c1 [Example 39, N-(2-((1S,4S)-2,5-Diazabicyclo[2.2.1]heptan-2-yl)-4-((S)-2-(methoxymethyl)azetidin-1-yl)phenyl)-2-(2-fluoro-6-methoxyphenyl)pyrimidine-4-carboxamide]	< 100 nM
COc1cccc(F)c1-c1nccc(C(=O)Nc2ccc(-c3cnccc3C#N)cc2N2CCO[C@H](CC#N)C2)n1 [Example 102, (R)-N-(2-(2-(Cyanomethyl)morpholino)-4-(4-cyanopyridin-3-yl)phenyl)-2-(2-fluoro-6-methoxyphenyl)pyrimidine-4-carboxamide]	< 100 nM
N#Cc1cnc(N2CCCC2)cc1-c1ccc(NC(=O)c2ccnc(-c3c(F)cccc3F)n2)c(N2C[C@@H](N)C[C@H]2CO)c1 [Example 93, N-(2-((2S,4S)-4-Amino-2-(hydroxymethyl)pyrrolidin-1-yl)-4-(5-cyano-2-(pyrrolidin-1-yl)pyridin-4-yl)phenyl)-2-(2,6-difluorophenyl)pyrimidine-4-carboxamide]	< 100 nM

Now from value to compound:

Ki	SMILES
< 100 nM	COc1cccc(F)c1-c1nccc(C(=O)Nc2ccc(C(C)C)cc2N2C[C@@H](N)C[C@H]2CO)n1 [Example 48, N-(2-((2S,4S)-4-Amino-2-(hydroxymethyl)pyrrolidin-1-yl)-4-isopropylphenyl)-2-(2-fluoro-6-methoxyphenyl)pyrimidine-4-carb oxamide]
< 100 nM	COc1cccc(F)c1-c1nccc(C(=O)Nc2cc(F)ccc2N2CCOCC2CO)n1 (stereo not drawn) [Example 12, N-(5-Fluoro-2-(3-(hydroxymethyl)morpholino)phenyl)-2-(2-fluoro-6-methoxyphenyl)pyrimidine-4-carboxamide]
< 100 nM	COc1cccc(F)c1-c1nccc(C(=O)Nc2ccc(Cl)cc2N2C[C@@H](N)C[C@H]2CO)n1 [Example 91, N-(2-((2S,4S)-4-Amino-2-(hydroxymethyl)pyrrolidin-1-yl)-4-chlorophenyl)-2-(2-fluoro-6-methoxyphenyl)pyrimidine-4-carboxamide]
< 100 nM	COc1cccc(F)c1-c1nccc(C(=O)Nc2ccc(N3CCC3)cc2N2C[C@@H]3C[C@H]2CN3)n1 [Example 38, N-(4-(Azetidin-1-yl)-2-((1S,4S)-2,5-diazabicyclo[2.2.1]heptan-2-yl)phenyl)-2-(2-fluoro-6-methoxyphenyl)pyrimidine-4-carboxamide]
< 100 nM	COc1cccc(F)c1-c1nccc(C(=O)Nc2cc(F)ccc2N2CCN[C@H](CO)C2)n1 [Example 104, (S)-N-(5-Fluoro-2-(3-(hydroxymethyl)piperazin-1-yl)phenyl)-2-(2-fluoro-6-methoxyphenyl)pyrimidine-4-carboxamide]
< 100 nM	COc1cccc(F)c1-c1nccc(C(=O)Nc2cc(F)c(-c3ccc(CO)nc3)cc2N2C[C@@H]3C[C@H]2CN3)n1 [Example 20, N-(2-((1S,4S)-2,5-Diazabicyclo[2.2.1]heptan-2-yl)-5-fluoro-4-(6-(hydroxymethyl)pyridin-3-yl)phenyl)-2-(2-fluoro-6-methoxyphenyl)pyrimidine-4-carboxamide]
< 100 nM	COc1cccc(F)c1-c1nccc(C(=O)Nc2ccc(C3CCOCC3)cc2N2C[C@@H](N)C[C@H]2CO)n1 [Example 90, N-(2-((2S,4S)-4-Amino-2-(hydroxymethyl)pyrrolidin-1-yl)-4-(tetrahydro-2H-pyran-4-yl)phenyl)-2-(2-fluoro-6-methoxyphenyl)pyrimidine-4-carboxamide]
100 to 500 nM	COc1cccc(F)c1-c1nccc(C(=O)Nc2cc(C#N)ccc2N2C[C@H]3C[C@@H]2CN3)n1 [Example 37, N-(2-((1R,4R)-2,5-Diazabicyclo[2.2.1]heptan-2-yl)-5-cyanophenyl)-2-(2-fluoro-6-methoxyphenyl)pyrimidine-4-carboxamide]
< 100 nM	COc1cccc(F)c1-c1nccc(C(=O)Nc2ccc(F)cc2N2C[C@@H](N)C[C@H]2CO)n1 [Example 92, N-(2-((2S,4S)-4-Amino-2-(hydroxymethyl)pyrrolidin-1-yl)-4-fluorophenyl)-2-(2-fluoro-6-methoxyphenyl)pyrimidine-4-carboxamide]
< 100 nM	COc1ccc(N2C[C@H]3C[C@@H]2CN3)c(NC(=O)c2ccnc(-c3c(F)cccc3OC)n2)c1 [Example 35, N-(2-((1R,4R)-2,5-Diazabicyclo[2.2.1]heptan-2-yl)-5-methoxyphenyl)-2-(2-fluoro-6-methoxyphenyl)pyrimidine-4-carboxamide]
500 to 5000 nM	COc1cccc(F)c1-c1nccc(C(=O)Nc2cc(F)ccc2N2CCCC2c2ccccn2)n1 (stereo not drawn) [Example 8, N-(5-Fluoro-2-(2-(pytidin-2-yl)pyrrolidin-1-yl)phenyl)-2-(2-fluoro-6-methoxyphenyl)pyrimidine-4-carboxamide]
< 100 nM	COc1cccc(F)c1-c1nccc(C(=O)Nc2ccc(-c3cnccc3C#N)cc2N2CC[C@H]2CO)n1 [Example 106, (S)-N-(4-(4-Cyanopyridin-3-yl)-2-(2-(hydroxymethyl)azetidin-1-yl)phenyl)-2-(2-fluoro-6-methoxyphenyl)pyrimidine-4-carboxamide]
